Results reported in US6812025B2, “Two hybrid assay that detects HIV-1 reverse transcriptase dimerization” (priority 2000, dated 2004).

Assays:
p66/p51 heterodimer [1] = target: T1, p66/p51 heterodimer (Human immunodeficiency virus type 1 group M subtype B, UniProt P12497); conditions: cited from earlier work
T1 construct: The enzyme is a heterodimer of p66 and p51 subunits

HIV-1 RT = HIV-1 RT (Human immunodeficiency virus type 1 group M subtype B, UniProt P12497); test: Exogenous RT assay (RT inhibitory activity); assay type: biochemical; conditions: results not shown
[2] = target: p66 and p51 subunits of the HIV-1 RT (Human immunodeficiency virus type 1 group M subtype B, UniProt P12497); test: Y2H RT heterodimerization assay measuring effect of NNRTIs on b-gal activity (wild-type lexA87-66 + Gal4AD-51); assay type: cell-based; conditions: for enhancement of b-gal activity (relative potency): yeast expressing lexA87-66 and Gal4AD-51, drug added to culture medium
Protocol: (§1) Transformation of yeast and the qualitative β-galactosidase (β-gal) colony lift assay were as published (19). Quantification of protein-protein interactions was determined using the β-gal liquid assay performed on permeabilized yeast grown from three independent transformants using orthonitrophenyl-β-D-galactopyranoside as substrate (19).
Yeast and bacterial strains were as described previously (22). Transformation of yeast, the qualitative b-gal colony lift assay and the quantitative b-gal liquid assay were as previously described (22).
CTY10-5d transformed constructs expressing p66 bait and p51 prey fusions were grown overnight to stationary phase in synthetic complete medium without histidine and leucine and containing 2% glucose (SC-His-Leu). […] Yeast were grown with aeration at 30° C. to OD600=0.5. The equivalent of 1 OD600 unit was pelleted for each treatment and subjected to a quantitative b-gal liquid assay.
To test the effects of NNRTIs on the association of the RT polypeptides we used a yeast genetic assay that measures RT heterodimerization (22). […] To test for the effects of the NNRTIs on this interaction, 10 drugs representing 7 different NNRTI classes were added to the culture medium during growth of the yeast and b-gal levels were determined.

HIV-1 = conditions: cited from earlier work
p66/p51 heterodimer [3] = target: T1, p66/p51 heterodimer; test: Y2H system, preliminary tests of TSAO on heterodimerization; assay type: cell-based, HIV-1; conditions: data not shown
Protocol: as §1
To date, there are no HIV-1 RT dimerization inhibitors being used in the clinic. Nevertheless, there are several reports of HIV-1 and HIV-2 RT dimerization inhibitors based on peptides representing the conserved tryptophan repeat region of RT (32, 37). […] However, the possibility that the drug is not taken up by yeast cannot be ruled out. The availability of a Y2H assay for RT dimerization will facilitate the screening for other such inhibitors of this process according to the methods set forth herein.

p66-His and GST-p51 = p66-His and GST-p51 (Human immunodeficiency virus type 1 group M subtype B, UniProt P04585); assay type: binding, HIV-1; conditions: for enhancement of dimerization of GST-p51 and p66-His in vitro: bacterial lysates, 1-1000 fold molar excess of drug, overnight
Protocol: Cells were induced and then lysed by the addition of 1 mg/ml of lysozyme to 1 ml of lysis buffer [50 mM sodium phosphate buffer (pH 7.8), 500 mM NaCl, 0.5% Nonidet P-40, 5 mM DTT, and 1 μg/ml each of pepstatin A, aprotinin and leupeptin] and clarified. Lysates were combined and incubated for 16 hrs at 4° C. The heterodimer was captured on Glutathione Sepharose 4B beads and unbound subunits were removed by washing with lysis buffer. Heterodimer bound to beads were resolved by SDS/PAGE. For quantification of RT activity, dimers were eluted from beads with 10 mM reduced glutathione in 50 mM Tris (pH 8.0). Samples were assayed for DNA polymerase activity on homopolymeric template-primers for various times, and the activity was determined from the initial slope of the linear phase of the time course.

[4] = target: T2, lexA87-66L234A and Gal4AD-HA-51L234A (Human immunodeficiency virus type 1 group M subtype B, UniProt P04585, L821A); assay type: cell-based, HIV-1; conditions: yeast grown in efavirenz (1.6 μM) or UC781 (16 μM), compared to no drug
T2 construct: Yeast expressing p66 bait and p51 prey fusions containing the L234A mutation; expressed in transfected cells; host or cells: Saccharomyces cerevisiae CTY10-5d
Description: Samples were resolved by SDS-PAGE. The leXA87-66 fusion protein was probed using monoclonal antibodies 7E5 which specifically detects p66 (31).
Hemagglutinin (HA) antibodies were used to immunoprecipitate the p51 prey and the presence of any bound p66 bait was then detected using anti-p66 specific antibodies. For coimmunoprecipitation of the p66 bait fusions, samples were divided into two with one part processed without added NNRTI while the other was maintained in drug at the same concentration used during growth of yeast.

RT heterodimer = target: T3, RT heterodimer (Human immunodeficiency virus type 1 group M subtype B, UniProt P12497); conditions: cited from earlier work
T3 construct: The enzyme is a heterodimer of p66 and p51 subunits

lexA87 and Gal4AD = target: T4, lexA87 and Gal4AD (UniProt P04386+P0A7C2); test: Y2H specificity control, empty vectors pSH2-1 and pGADNOT; assay type: cell-based; conditions: serial dilutions, up to 15 μM of drug; data not shown
T4 construct: expressed in transfected cells; host or cells: Saccharomyces cerevisiae (yeast reporter strain)
T4 sequence (P0A7C2 1-87): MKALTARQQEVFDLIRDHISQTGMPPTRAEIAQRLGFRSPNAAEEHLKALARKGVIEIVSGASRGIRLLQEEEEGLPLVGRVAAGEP
T4 sequence (P04386 768-881): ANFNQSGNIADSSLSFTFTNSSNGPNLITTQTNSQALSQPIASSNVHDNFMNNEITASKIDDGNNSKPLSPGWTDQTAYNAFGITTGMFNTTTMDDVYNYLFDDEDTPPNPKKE
Description: The specificity of the b-gal enhancement by NNRTIs was investigated. […].

**Q.** Which “destabilization of the p66/p51 heterodimer” value (p66/p51 heterodimer [1]) does the source give for `CCn1c(=O)c(C)cn([C@@H]2O[C@H](CO[Si](C)(C)C(C)(C)C)C3(OS(=O)(=O)C=C3N)[C@H]2O[Si](C)(C)C(C)(C)C)c1=O` (stereo partly drawn) [TSAOe^3T] here?
**A.** more modest destabilization only detectable in the presence of denaturants

**Q.** Which “RT inhibitory activity (50% inhibitory concentration), rank” value (HIV-1 RT) does the source give for `CC(C)OC(=O)c1cc(NC(=S)OC(C)C)ccc1Cl` [UC38] here?
**A.** least active

**Q.** What about the “concentration of drug that mediates a 5-fold increase in b-gal activity (rank)” value ([2]; results not shown) of the same molecule?
**A.** least active

**Q.** With `COc1ccc2c(c1)N(C(=O)OC(C)C)[C@@H](CSC)C(=S)N2` [HBY 097] as the molecule, how does the “enhancement of b-gal activity (relative potency)” value (from here on “enhancement … (relative potency)”) [2] read?
**A.** most potent

**Q.** What about the “inhibition of HIV-1 replication in vitro” value (HIV-1) of the same molecule?
**A.** extremely potent inhibitors of HIV-1 replication in vitro

**Q.** What does the source list for “2′, 5′-bis-O-(tert-butylidimethylsilyl)-3′-spiro-5″-4″-amino-1′, 2″-oxothiole-2″,2″-dioxide)]-b-D-pentofuranosyl [TSAO]”?
**A.** effect on β-gal activity in the Y2H system (p66/p51 heterodimer [3]): no inhibition of β-gal activity; destabilization of the p66/p51 heterodimer (p66/p51 heterodimer [1]): destabilize the p66/p51 heterodimer; effect on heterodimerization in in vitro binding assays (p66-His and GST-p51; preliminary tests, data not shown): reduce heterodimerization

**Q.** Which “amount of p66 bait coimmunoprecipitated with p51 prey (heterodimer formation), L234A” value [4] does the source give for `CC(C)=CCOc1cc(NC(=S)c2ccoc2C)ccc1Cl` [UC781] here?
**A.** not for the L234A mutant

**Q.** What about the “enhancement … (relative potency)” value [2] of the same molecule?
**A.** second most potent

**Q.** And the “enhancement of dimerization of GST-p51 and p66-His in vitro” value (“enhancement of dimerization … in vitro” for short) (p66-His and GST-p51)?
**A.** poor dimerization inducers

**Q.** And the “inhibition of HIV-1 replication in vitro” value (HIV-1)?
**A.** extremely potent inhibitors of HIV-1 replication in vitro

**Q.** What about the “binding to the RT heterodimer” value (RT heterodimer) of the same molecule?
**A.** bind very tightly

**Q.** And the “dissociation rates (koff)” value (RT heterodimer)?
**A.** very slow dissociation rates

**Q.** With `O=C1Nc2ccc(Cl)cc2[C@@](C#CC2CC2)(C(F)(F)F)O1` [efavirenz] as the molecule, how does the “b-gal activity with empty vectors” value (lexA87 and Gal4AD) read?
**A.** no increase in b-gal activity

**Q.** Which “enhancement … (relative potency)” value [2] does the source give for `CC(C)Nc1cccnc1N1CCN(C(=O)c2cc3cc(NS(C)(=O)=O)ccc3[nH]2)CC1` [delavirdine] here?
**A.** devoid of b-gal enhancing activity

**Q.** What about the “enhancement of dimerization … in vitro” value (p66-His and GST-p51) of the same molecule?
**A.** inactive in vitro

**Q.** For `Cc1occc1C(=S)Nc1ccc(Cl)c(/C=N/OC(C)(C)C)c1` [UC10], which “enhancement of dimerization … in vitro” value (p66-His and GST-p51) is on record?
**A.** poor dimerization inducers
